According to publication PMC11855827, “High-Throughput Screening of Five Compound Libraries for Anthelmintic Activity and Toxicity Leads to the Discovery of Two Flavonoid Compounds” (International Journal of Molecular Sciences, 2025):
Read-outs that look alike come from different tables or passages of the source.

Test system: C. elegans
Assay: microbe, parasite or virus in culture
Settings: Caenorhabditis elegans
[1] = 0 h, read-out: Percentage of motility inhibition 0 h, Table S2, C. elegans SS assay, 110 μM, 0 h, averages of 4 data points
[2] = 24 h, read-out: Percentage of motility inhibition 24 h, Table S2, C. elegans SS assay, 110 μM, 24 h, averages of 4 data points

| Structure (SMILES) | inhibition at 110 µM [1] [%] | inhibition at 110 µM [2] [%] | inhibition at 110 µM (0 h, read-out: Percentage of motility inhibition 0 h) [%] | inhibition at 110 µM (24 h, read-out: Percentage of motility inhibition 24 h) [%] |
| --- | --- | --- | --- | --- |
| CC1CCc2c(N3CCC(O)CC3)c(F)cc3c(=O)c(C(=O)O)cn1c23 (stereo not drawn) [Nadifloxacin] | 0 | 0 | – | – |
| CCCCCCCCCC(=O)O[C@H]1CC[C@H]2[C@@H]3CCC4=CC(=O)CC[C@@H]4[C@H]3CC[C@]12C [Nandrolone decanoate] | 29 | 31 | – | – |
| COc1cc(-c2oc3cc(O)cc(O)c3c(=O)c2O[C@@H]2O[C@H](CO[C@@H]3O[C@@H](C)[C@H](O)[C@@H](O)[C@H]3O)[C@@H](O)[C@H](O)[C@H]2O)ccc1O [Narcissin] | 42 | 25 | – | – |
| C[C@@H]1CCC=C2C(=O)C[C@H]3OOC(C)(C)[C@H]3[C@]21C [Nardosinone] | 0 | 13 | – | – |
| C[C@@H]1O[C@@H](O[C@H]2[C@H](Oc3cc(O)c4c(c3)O[C@H](c3ccc(O)cc3)CC4=O)O[C@H](CO)[C@@H](O)[C@@H]2O)[C@H](O)[C@H](O)[C@H]1O [Naringin] | 0 | 3 | – | – |
| C[C@@H]1O[C@@H](OC[C@H]2O[C@@H](Oc3cc(O)c4c(c3)O[C@H](c3ccc(O)cc3)CC4=O)[C@H](O)[C@@H](O)[C@@H]2O)[C@H](O)[C@H](O)[C@H]1O [Narirutin] | 39 | 19 | – | – |
| C[C@@H]1C/C=C/C=C/C=C/C=C/[C@H](O[C@@H]2O[C@H](C)[C@@H](O)[C@H](N)[C@@H]2O)C[C@@H]2O[C@](O)(C[C@@H](O)C[C@H]3O[C@@H]3/C=C/C(=O)O1)C[C@H](O)[C@H]2C(=O)O [Natamycin] | 26 | 0 | – | – |
| COc1ccc(C[C@@H]2c3cc(Oc4cc(C[C@@H]5c6cc(OC)c(OC)cc6CCN5C)ccc4O)c(OC)cc3CCN2C)cc1 [Neferine] | – | – | 25 | 9 |
| C=C1CC[C@@H]2[C@](C)(CO[C@@H]3O[C@H](CO)[C@@H](O)[C@H](O)[C@H]3O)CCC[C@@]2(C)[C@@H]1CCC1=CCOC1=O [Neoandrographolide] | 15 | 40 | – | – |
| CC(C)=CCc1cc(-c2coc3cc(O)ccc3c2=O)ccc1O [Neobavaisoflavone] | 10 | 21 | – | – |
| C[C@H](CO)C1=C(O)C(=O)c2c(ccc3c2CCCC3(C)C)C1=O [Neocryptotanshinone] | 18 | 25 | – | – |
| COc1ccc(CCC(=O)c2c(O)cc(O[C@@H]3O[C@H](CO)[C@@H](O)[C@H](O)[C@H]3O[C@@H]3O[C@@H](C)[C@H](O)[C@@H](O)[C@H]3O)cc2O)cc1O [Neohesperidin dihydrochalcone] | 10 | 2 | – | – |
| CC[C@@H]1[C@H]2CCCCN3[C@H]2[C@@H](C[C@H]3[C@@H]2C[C@H](C)C(=O)O2)[C@H]2[C@@H]1OC(=O)[C@H]2C [Neotuberostemonine] | 0 | 9 | – | – |
| COc1ccc(-c2cc(=O)c3c(O)c(OC)c(O)c(OC)c3o2)cc1 [Nevadensin] | 39 | 0 | – | – |
| Cc1ccnc2c1NC(=O)c1cccnc1N2C1CC1 [Nevirapine] | 10 | 6 | – | – |
| O=C(O)c1cccnc1 [Niacin] | 0 | 14 | – | – |
| CSCC1CN(/N=C/c2ccc([N+](=O)[O-])o2)C(=O)O1 (stereo not drawn) [Nifuratel] | 0 | 4 | – | – |
| O=C(N/N=C/c1ccc([N+](=O)[O-])o1)c1cc([N+](=O)[O-])cc([N+](=O)[O-])c1O [Nifursol] | 8 | 6 | – | – |
| O=[N+]([O-])c1cncn1CCN1CCOCC1 [Nimorazole] | 0 | 0 | – | – |
| CC(=O)Oc1ccccc1C(=O)Nc1ncc([N+](=O)[O-])s1 [Nitazoxanide] | 51 | 49 | – | – |
| CC(=O)Nc1ncc([N+](=O)[O-])s1 [Nithiamide] | 32 | 7 | – | – |
